Measurements from ChEMBL document CHEMBL1142050, “A two-state homology model of the hERG K+ channel: application to ligand binding” (Bioorg Med Chem Lett, 2005).

Tests used:
[1] = target: T1, Voltage-gated inwardly rectifying potassium channel KCNH2 (Homo sapiens, UniProt Q12809); assay: Inhibition of human voltage-gated potassium channel subunit Kv11.1 (ERG K+ channel) in open state; type: functional
[2] = target: T1, Voltage-gated inwardly rectifying potassium channel KCNH2; assay: Inhibition of partially open human voltage-gated potassium channel subunit Kv11.1 (ERG K+ channel)

T1 sequence (Q12809 whole entry): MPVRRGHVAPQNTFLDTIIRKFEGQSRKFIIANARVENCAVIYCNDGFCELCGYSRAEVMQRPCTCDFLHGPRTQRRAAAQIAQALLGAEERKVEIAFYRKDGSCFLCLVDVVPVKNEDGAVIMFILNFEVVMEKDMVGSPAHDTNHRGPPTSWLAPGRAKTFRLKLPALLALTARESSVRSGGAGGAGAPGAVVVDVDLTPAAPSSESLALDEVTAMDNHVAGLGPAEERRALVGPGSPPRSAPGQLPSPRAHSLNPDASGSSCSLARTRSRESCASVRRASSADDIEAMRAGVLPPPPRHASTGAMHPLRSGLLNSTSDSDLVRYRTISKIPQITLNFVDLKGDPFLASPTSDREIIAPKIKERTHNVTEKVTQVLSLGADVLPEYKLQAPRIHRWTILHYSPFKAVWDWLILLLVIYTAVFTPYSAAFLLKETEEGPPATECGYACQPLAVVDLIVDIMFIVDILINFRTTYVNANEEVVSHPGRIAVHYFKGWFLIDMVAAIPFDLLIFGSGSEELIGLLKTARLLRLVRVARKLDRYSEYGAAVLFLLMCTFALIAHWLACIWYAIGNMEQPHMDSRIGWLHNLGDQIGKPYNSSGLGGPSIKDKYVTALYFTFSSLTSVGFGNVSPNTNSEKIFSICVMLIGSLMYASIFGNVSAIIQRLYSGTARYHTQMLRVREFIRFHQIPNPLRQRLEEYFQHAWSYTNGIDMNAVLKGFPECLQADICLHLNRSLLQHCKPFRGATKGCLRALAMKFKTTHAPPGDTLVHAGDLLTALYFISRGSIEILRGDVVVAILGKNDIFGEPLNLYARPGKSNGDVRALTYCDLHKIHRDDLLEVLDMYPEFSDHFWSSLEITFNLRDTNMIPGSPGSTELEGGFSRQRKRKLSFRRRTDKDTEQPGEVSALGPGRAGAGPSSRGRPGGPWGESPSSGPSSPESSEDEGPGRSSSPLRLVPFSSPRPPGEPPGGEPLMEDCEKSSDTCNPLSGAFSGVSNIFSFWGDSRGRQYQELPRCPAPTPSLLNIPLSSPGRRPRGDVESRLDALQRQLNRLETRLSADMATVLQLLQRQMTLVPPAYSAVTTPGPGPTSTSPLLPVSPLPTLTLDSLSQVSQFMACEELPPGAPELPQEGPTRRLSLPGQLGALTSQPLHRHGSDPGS

Row | Structure (SMILES) | IC50 [1] [nM] | IC50 [2] [nM]
1 | CN1CCN(CCCCN2C(=O)CN(/N=C/c3ccc(-c4ccc(Cl)cc4)o3)C2=O)CC1 | 562 | 
2 | CN(c1nccc(=O)[nH]1)C1CCN(c2nc3ccccc3n2Cc2ccc(F)cc2)CC1 [MIZOLASTINE] |  | 355
3 | C[C@@H]1CN(c2c(F)c(N)c3c(=O)c(C(=O)O)cn(C4CC4)c3c2F)C[C@H](C)N1 [SPARFLOXACIN] | 26300 | 
